Results reported in US20210349099A1, “CANCER BIOMARKERS AND METHODS OF USE THEREOF” (X4 Pharmaceuticals, Inc., priority 2017, published 2021).

Assays:
[1] = test system: B16-OVA tumor microenvironment; assay: Flow cytometry of immune cell populations in B16-OVA tumor tissue; format: in vivo, C57BL/6 mice
Protocol: Single cell suspensions were prepared from tumor tissues by treating with collagenase and analyzing for various immune cell populations using flow cytometry. Cell surface markers included CD3, CD8, Perforin, CD15CD11b (MDSC), and FoxP3 (Treg). […] The enhancement was even greater for combination therapy with anti-PD-1.

melanoma lesions = assay: CD8/Ki67/melanoma staining with nearest neighbor spatial analysis of biopsies; format: in vivo, human
Protocol: (§1) Tumor samples obtained from melanoma patients were formalin-fixed and paraffin-embedded (FFPE) according to known procedures. FFPE tissue sections were baked for 1 hour at 60° C. The slides were dewaxed and stained on a Leica BOND Rx stainer (Leica, Buffalo Grove, Ill.) using Leica Bond reagents for dewaxing (Dewax Solution), antigen retrieval and antibody stripping (Epitope Retrieval Solution 2), and rinsing after each step (Bond Wash Solution). A high stringency wash was performed after the secondary and tertiary applications using high-salt TBST solution (0.05 M Tris, 0.3M NaCl, and 0.1% Tween-20, pH 7.2-7.6).
Multiplex IHC staining was analyzed using HALO™ spatial analysis tools, and the entire tumor area of each specimen was scored. (See Tunstall, “Quantifying Immune Cell Distribution in the Tumor Microenvironment Using HALO™ Spatial Analysis Tools,” Application Note, July […], (Indica Labs), accessed Nov. 1, 2017, on https://thepathologist.com/fileadmin/issues/App_Notes/0016-010-halo-app-note.pdf). See also Sherry et al., Cancer Research 77(13) Supp: Abstract 2937 (2017).
Slides were sequentially stained with antibody panels after rounds of heat-induced epitope retrieval and detected by antibody-binding HRP-containing polymers in conjunction with fluorescent tyramide substrate (Opal, Perkin-Elmer). DAPI was used as a nuclear counterstain. Fluorochromes with spectral overlap were imaged using spectral deconvolution and autofluorescence-subtraction (Vectra 3.0, Perkin-Elmer). Whole-slide scans were imaged using the Aperio-FL System (Leica Biosystems) and transferred into Halo for quantitative digital image analysis. After the cells were visualized based on nuclear recognition (DAPI stain), the software measured fluorescence intensity of the estimated cytoplasmic areas of each cell. A mean intensity threshold above background was used to determine positivity for each fluorochrome within the cytoplasm, thereby, defining cells as either positive or negative for each marker. The positive cell data was then used to define colocalized populations and to perform nearest neighbor spatial analysis.
Staining for CD4, CD8, PD-1, PD-L1, CD163/CD68 (macrophage), FoxP3, Ki-67, and melanoma cells was accomplished using the antibodies listed in TABLE 3 and 4. OPAL Polymer HRP Mouse plus Rabbit (Perkin-Elmer, Hopkington, Mass.) was used for all secondary applications. […]
Representative distance measurements between CD8^+ T cells and their nearest melanoma cell neighbors are shown in FIG. 13 (Day 1), FIG. 14 (Week 4), and FIG. 15 (End of treatment). Whole slide scans were performed using a fluorescence slide scanner (Aperio-FL, 20× objective). […]

[2] = test system: melanoma tumor microenvironment (TME); assay: Multiplex immunofluorescence (mIF) immunophenotyping of melanoma biopsies; format: in vivo, human; conditions: melanoma patient #5
Protocol: as §1, with “Formalin-fixed” for “Tumor samples obtained from melanoma patients were formalin-fixed and”, “(FFPE)” for “(FFPE) according to known procedures. FFPE”, “7.2-7.6). OPAL Polymer HRP Mouse plus Rabbit (PerkinElmer, Hopkington, Mass.) was used for all secondary applications.” for “7.2-7.6).”
Antigen retrieval and antibody stripping steps were performed at 100° C. with all other steps at ambient temperature. Endogenous peroxidase was blocked with 3% H2O2 for 8 minutes followed by protein blocking with TCT buffer (0.05 M Tris, 0.15 M NaCl, 0.25% Casein, 0.1% Tween 20, pH 7.6+/−0.1) for 30 minutes. The first primary antibody (position 1) was applied for 60 minutes followed by the secondary antibody application for 10 minutes and the application of the tertiary TSA-amplification reagent (PerkinElmer OPAL fluor) for 10 minutes. The primary and secondary antibodies were stripped with retrieval solution for 20 minutes before repeating the process with the second primary antibody (position 2) starting with a new application of 3% H2O2. The process was repeated until all 6 positions were completed; however, there was no stripping step after the 6th position. Slides were removed from the stainer and stained with Spectral DAPI (Perkin Elmer) for 5 minutes, rinsed for 5 minutes, and coverslipped with Prolong Gold Antifade reagent (Invitrogen/Life Technologies, Grand Island, N.Y.).
Slides were cured for 24 hours at room temperature, then representative images from each slide were acquired on PerkinElmer Vectra 3.0 Automated Imaging System. Images were spectrally unmixed using PerkinElmer inForm software and exported as multi-image TIFF's for analysis in HALO software (Indica Labs, Corrales, N. Mex.).
Cellular analysis of the images were then analyzed with HALO image analysis software (Indica Labs, Cooales, N. Mex.). After the cells were visualized based on nuclear recognition (DAPI stain), the software measured fluorescence intensity of the estimated cytoplasmic areas of each cell. A mean intensity threshold above background was used to determine positivity for each fluorochrome within the cytoplasm, thereby, defining cells as either positive or negative for each marker. The positive cell data was then used to define colocalized populations and to perform nearest neighbor spatial analysis.
Formalin-fixed paraffin-embedded melanoma samples were stained sequentially with a 6-component immunophenotyping antibody panel, including CD4, CD8, PD-1, PD-L1, macrophage cocktail (CD68+CD163), and FoxP3 (Tregs). DAPI was used as a nuclear counterstain. Antibodies were detected using HRP-catalyzed deposition of fluorescent tyramide substrates (Opal, Perkin-Elmer). Images were obtained using spectral imaging, autofluorescence subtraction and unmixing (Vectra 3.0, Perkin-Elmer), and analyzed using HALO™ image analysis software.
as §1, with “7.2-7.6). […]” for “7.2-7.6).”

## NCCCCN(Cc1nc2ccccc2[nH]1)[C@H]1CCCc2cccnc21 [X4P-001]
[1]
  suppressor cell counts (Tregs and MDSC): substantially decreased
Melanoma lesions; after 4 weeks of monotherapy, Day 1 3,826
  number of unique neighbors: 5,239
Melanoma lesions; after 4 weeks of monotherapy, Day 1 baseline 95
  average distance between CD8+ T cells and the nearest tumor cell: 43 microns
Melanoma lesions; patient 5, entire tissue sample, after monotherapy
  CD8+ T cell density: increased
Melanoma lesions; patient 5, entire tissue sample, after monotherapy, stronger impact
  proliferating CD8+ T cell (Ki67+) density: increased
[2]
  percentage of CD4 positive cells in the TME: increased
  percentage of CD8 positive cells in the TME: increased
  percentage of PD-1 positive cells in the TME: increased
  percentage of PDL-1 positive cells in the TME: increased
  percentage of Treg (FoxP3+) cells: not altered
[2]; printed 24.1% vs. 25.4%, not altered
  percentage of macrophages (CD68/CD163+): 25.4%
